Experimental data from patent US20230233569A1 (Revolution Medicines, Inc., priority 2020, published 2023).

What was measured:
[1] = system: Capan-1 (K-Ras G12V); test: CellTiter-Glo cell viability assay, 5-day treatment; assay type: cell-based; conditions: Homo sapiens, CAPAN-1, 120 h, 5-day treatment; read-out: Capan-1 Cell Viability assay data (K-Ras G12V, IC50)
In short: (§1)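 Seeded cells received test compound by direct dispensing. On day 5 the plates sat at room temperature approximately 30 minutes, then luminescence was measured. Data were normalized to DMSO and curve-fitted with four parameters.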

[2] = system: NCI-H358 (K-Ras G12C); test: as above; assay type: cell-based; conditions: Homo sapiens, NCI-H358, 120 h, 5-day treatment; read-out: H358 Cell Viability assay data (K-Ras G12C, IC50)
In short: as §1

[3] = biological target: KRAS G12C (Homo sapiens, UniProt P01116+P62937, G12C); test: Disruption of BRAF RBD interaction with Ras (FRET / MOA assay, with Cyclophilin A); assay type: biochemical; conditions: read-out: KRAS G12C FRET data, IC50
KRAS G12C, sequence (P01116 1-169 isoform P01116-2 G12C): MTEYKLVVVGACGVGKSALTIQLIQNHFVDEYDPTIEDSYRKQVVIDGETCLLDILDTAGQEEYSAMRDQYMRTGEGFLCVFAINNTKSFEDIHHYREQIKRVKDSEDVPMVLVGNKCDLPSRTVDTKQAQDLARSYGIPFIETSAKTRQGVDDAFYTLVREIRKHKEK
KRAS G12C, sequence (P62937 whole entry): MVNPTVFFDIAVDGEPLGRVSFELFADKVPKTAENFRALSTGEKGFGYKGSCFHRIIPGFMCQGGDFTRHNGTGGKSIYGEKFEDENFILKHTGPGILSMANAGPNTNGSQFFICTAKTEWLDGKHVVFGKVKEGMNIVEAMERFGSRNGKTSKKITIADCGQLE
In short: (§2)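 Biochemical TR-FRET disruption assay: nucleotide-loaded K-Ras with Cyclophilin A and a BRAF RBD construct, compound titrated over 10 points from 30 μM (final).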

[4] = biological target: KRAS G12D (Homo sapiens, UniProt P01116+P62937, G12D); test: as above; assay type: biochemical; conditions: read-out: KRAS G12D FRET data, IC50
KRAS G12D, sequence (P01116 1-169 isoform P01116-2 G12D limits assumed): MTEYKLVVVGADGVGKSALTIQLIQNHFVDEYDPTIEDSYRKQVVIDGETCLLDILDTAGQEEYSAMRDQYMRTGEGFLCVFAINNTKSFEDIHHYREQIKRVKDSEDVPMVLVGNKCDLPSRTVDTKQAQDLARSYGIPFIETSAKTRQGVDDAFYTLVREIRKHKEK
KRAS G12D, sequence (P62937 whole entry): as the sequence (P62937 whole entry) above
In short: as §2

[5] = biological target: KRAS G12S (Homo sapiens, UniProt P01116+P62937, G12S); test: as above; assay type: biochemical; conditions: read-out: KRAS G12S FRET data, IC50
KRAS G12S, sequence (P01116 1-169 isoform P01116-2 G12S limits assumed): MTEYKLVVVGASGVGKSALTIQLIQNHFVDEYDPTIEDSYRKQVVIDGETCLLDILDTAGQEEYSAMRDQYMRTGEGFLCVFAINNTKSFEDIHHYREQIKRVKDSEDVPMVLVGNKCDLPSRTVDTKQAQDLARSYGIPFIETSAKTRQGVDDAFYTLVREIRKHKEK
KRAS G12S, sequence (P62937 whole entry): as the sequence (P62937 whole entry) above
In short: as §2

[6] = biological target: KRAS G12V (Homo sapiens, UniProt P01116+P62937, G12V); test: as above; assay type: biochemical; conditions: KRAS G12V; read-out: KRAS G12V FRET data IC50
KRAS G12V, sequence (P01116 1-169 isoform P01116-2 G12V limits assumed): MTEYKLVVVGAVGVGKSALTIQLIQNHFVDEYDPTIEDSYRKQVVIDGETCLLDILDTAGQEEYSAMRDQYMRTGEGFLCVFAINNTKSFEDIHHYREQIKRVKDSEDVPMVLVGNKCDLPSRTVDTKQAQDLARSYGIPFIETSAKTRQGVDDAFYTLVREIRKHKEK
KRAS G12V, sequence (P62937 whole entry): as the sequence (P62937 whole entry) above
In short: as §2

[7] = biological target: KRAS G13C (Homo sapiens, UniProt P01116+P62937, G13C); test: as above; assay type: biochemical; conditions: read-out: KRAS G13C FRET data, IC50
KRAS G13C, sequence (P01116 1-169 isoform P01116-2 G13C): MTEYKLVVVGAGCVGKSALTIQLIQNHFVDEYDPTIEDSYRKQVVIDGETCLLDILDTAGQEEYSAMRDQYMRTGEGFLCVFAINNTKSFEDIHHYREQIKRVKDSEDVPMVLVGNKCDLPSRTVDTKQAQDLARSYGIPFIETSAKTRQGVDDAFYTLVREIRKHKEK
KRAS G13C, sequence (P62937 whole entry): as the sequence (P62937 whole entry) above
In short: as §2

[8] = biological target: KRAS G13D (Homo sapiens, UniProt P01116+P62937, G13D); test: as above; assay type: biochemical; conditions: KRAS G13D; read-out: KRAS G13D FRET data IC50
KRAS G13D, sequence (P01116 1-169 isoform P01116-2 G13D limits assumed): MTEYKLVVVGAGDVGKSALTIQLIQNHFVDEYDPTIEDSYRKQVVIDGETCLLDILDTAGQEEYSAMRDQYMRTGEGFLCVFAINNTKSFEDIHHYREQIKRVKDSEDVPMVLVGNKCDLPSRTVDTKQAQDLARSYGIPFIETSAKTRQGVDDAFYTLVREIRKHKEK
KRAS G13D, sequence (P62937 whole entry): as the sequence (P62937 whole entry) above
In short: as §2

[9] = biological target: KRAS WT (Homo sapiens, UniProt P01116+P62937); test: as above; assay type: biochemical; conditions: KRAS WT; read-out: KRAS WT FRET data IC50
KRAS WT, sequence (P01116 1-169 isoform P01116-2 limits assumed): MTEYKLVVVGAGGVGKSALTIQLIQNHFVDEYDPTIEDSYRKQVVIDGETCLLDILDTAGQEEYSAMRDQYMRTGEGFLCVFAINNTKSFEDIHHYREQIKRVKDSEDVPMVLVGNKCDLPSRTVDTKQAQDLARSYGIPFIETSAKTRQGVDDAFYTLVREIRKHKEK
KRAS WT, sequence (P62937 whole entry): as the sequence (P62937 whole entry) above
In short: as §2

[10] = biological target: NRAS G12C (Homo sapiens, UniProt P01111+P62937, G12C); test: as above; assay type: biochemical; conditions: NRAS G12C; read-out: NRAS G12C FRET data IC50
NRAS G12C, sequence (P01111 whole entry G12C): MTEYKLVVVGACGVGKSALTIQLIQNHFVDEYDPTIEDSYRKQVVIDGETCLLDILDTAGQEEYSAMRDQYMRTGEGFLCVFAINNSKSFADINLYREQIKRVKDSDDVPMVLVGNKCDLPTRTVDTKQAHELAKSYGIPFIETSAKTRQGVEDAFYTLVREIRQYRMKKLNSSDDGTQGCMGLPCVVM
NRAS G12C, sequence (P62937 whole entry): as the sequence (P62937 whole entry) above

[11] = biological target: KRAS Q61H (Homo sapiens, UniProt P01116+P62937, Q61H); test: as above; assay type: biochemical; conditions: KRAS Q61H; read-out: KRAS Q61H FRET data IC50
KRAS Q61H, sequence (P01116 1-169 isoform P01116-2 Q61H limits assumed): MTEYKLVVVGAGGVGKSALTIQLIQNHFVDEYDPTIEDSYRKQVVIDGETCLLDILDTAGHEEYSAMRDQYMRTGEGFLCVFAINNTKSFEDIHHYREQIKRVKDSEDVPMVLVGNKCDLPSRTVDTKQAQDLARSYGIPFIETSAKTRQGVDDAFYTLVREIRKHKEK
KRAS Q61H, sequence (P62937 whole entry): as the sequence (P62937 whole entry) above
In short: (§3)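 TR-FRET in 25 mM HEPES pH 7.3, 100 mM NaCl, 5 mM MgCl2, 0.1% BSA: 25 μM Cyclophilin A, 12.5 nM His6-Ras-GMPPNP, 50 nM GST-BRAF RBD with compound (10-point 3-fold series from 30 μM), 3 h at 25° C. Anti-His Eu/anti-GST APC added, 1.5 h more; IC50 from decreased FRET ratio versus DMSO.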

[12] = biological target: NRAS Q61K (Homo sapiens, UniProt P01111+P62937, Q61K); test: as above; assay type: biochemical; conditions: NRAS Q61K; read-out: NRAS Q61K FRET data IC50
NRAS Q61K, sequence (P01111 whole entry Q61K): as the sequence (P01111 whole entry G12C) above, with C12G, Q61K counted along it
NRAS Q61K, sequence (P62937 whole entry): as the sequence (P62937 whole entry) above
In short: as §3

[13] = biological target: NRAS Q61R (Homo sapiens, UniProt P01111+P62937, Q61R); test: as above; assay type: biochemical; conditions: NRAS Q61R; read-out: NRAS Q61R FRET data IC50
NRAS Q61R, sequence (P01111 whole entry Q61R): as the sequence (P01111 whole entry G12C) above, with C12G, Q61R counted along it
NRAS Q61R, sequence (P62937 whole entry): as the sequence (P62937 whole entry) above
In short: as §3

[14] = biological target: NRAS WT (Homo sapiens, UniProt P01111+P62937); test: as above; assay type: biochemical; conditions: NRAS WT; read-out: NRAS WT FRET data IC50
NRAS WT, sequence (P01111 whole entry): as the sequence (P01111 whole entry G12C) above, with C12G counted along it
NRAS WT, sequence (P62937 whole entry): as the sequence (P62937 whole entry) above
In short: as §3

Row | SMILES | IC50 [1] [µM] | IC50 [2] [µM] | IC50 [3] [µM] | IC50 [4] [µM] | IC50 [5] [µM] | IC50 [6] [µM] | IC50 [7] [µM] | IC50 [8] [µM] | IC50 [9] [µM] | IC50 [10] [µM] | IC50 [11] [µM] | IC50 [12] [µM] | IC50 [13] [µM] | IC50 [14] [µM]
1 | CCn1c(-c2cccnc2[C@H](C)OC)c2c3cc(ccc31)-c1csc(n1)C[C@H](NC(=O)C1(F)COC1)C(=O)N1CCC[C@H](N1)C(=O)OCC(C)(C)C2 [Example A320] | 0.1 to 1 | 1 to 10 | 0.1 to 1 | 1 to 10 | 0.1 to 1 | 0.1 to 1 | 0.1 to 1 | 1 to 10 | 0.1 to 1 | 0.1 to 1 | 0.1 to 1 | 0.1 to 1 | 1 to 10 | 0.1 to 1
2 | CCn1c(-c2cccnc2[C@H](C)OC)c2c3cc(ccc31)-c1cc(O)cc(c1)C[C@H](NC(=O)[C@H](C(C)C)N(C)C(=O)OC1CC1)C(=O)N1CCC[C@H](N1)C(=O)OCC(C)(C)C2 [Example A174] | 0.1 to 1 | 0.1 to 1 | 0.1 to 1 | 0.1 to 1 | 0.1 to 1 | 0.1 to 1 | 0.1 to 1 | 0.1 to 1 | 0.1 to 1 | 0.1 to 1 | 0.01 to 0.1 | 0.1 to 1 | 0.1 to 1 | 0.1 to 1
3 | CCn1c(-c2cccnc2[C@H](C)OC)c2c3cc(ccc31)-c1csc(n1)C[C@H](NC(=O)[C@H]1C[C@@H]1C)C(=O)N1CCC[C@H](N1)C(=O)OCC(C)(C)C2 [Example A286, (1S,2S)—N-((6^3S,4S,Z)-1^1-ethyl-1^2-(2-((S)-1-methoxyethyl)pyridin-3-yl)-10,10-dimethyl-5,7-dioxo-6^1,6^2,6^3,6^4,6^5,6^6-hexahydro-1^1H-8-oxa-2(4,2)-thiazola-1(5,3)-indola-6(1,3)-pyridazinacycloundecaphane-4-yl)-2-methylcyclopropane-1-carboxamide] | 0.1 to 1 | 0.01 to 0.1 | 0.1 to 1 | 0.1 to 1 | 0.1 to 1 | 0.1 to 1 | 0.1 to 1 | 0.1 to 1 | 0.1 to 1 | 0.1 to 1 | 0.1 to 1 | 0.1 to 1 | 0.1 to 1 | 0.1 to 1
4 | CCn1c(-c2cc(N3CCN(C)CC3)cnc2[C@H](C)OC)c2c3cc(ccc31)-c1csc(n1)C[C@H](NC(=O)[C@H](C(C)C)N(C)C(=O)N(C)C)C(=O)N1CCC[C@H](N1)C(=O)OCC(C)(C)C2 (atropisomer, axis not shown) [Example A277, (2S)—N-((6^3S,4S,Z)-1^1-ethyl-1^2-(2-((S)-1-methoxyethyl)-5-(4-methylpiperazin-1-yl)pyridin-3-yl)-10,10-dimethyl-5,7-dioxo-6^1,6^2,6^3,6^4,6^5,6^6-hexahydro-1^1H-8-oxa-2(4,2)-thiazola-1(5,3)-indola-6(1,3)-pyridazinacycloundecaphane-4-yl)-3-methyl-2-(1,3,3-trimethylureido)butanamide] | < 0.01 | < 0.01 | 0.01 to 0.1 | 0.1 to 1 | 0.01 to 0.1 | 0.01 to 0.1 | 0.01 to 0.1 | 0.01 to 0.1 | 0.01 to 0.1 | 0.01 to 0.1 | 0.01 to 0.1 | 0.01 to 0.1 | 0.01 to 0.1 | 0.01 to 0.1
5 | CCn1c(-c2cccnc2[C@H](C)OC)c2c3cc(ccc31)-c1csc(n1)C[C@H](NC(=O)[C@H](C(C)C)N(C)C(=O)N1CCCC13COC3)C(=O)N1CCC[C@H](N1)C(=O)OCC(C)(C)C2 (atropisomer, axis not shown) [Example A528] | 0.01 to 0.1 | 0.01 to 0.1 | 0.01 to 0.1 | 0.1 to 1 | 0.1 to 1 | 0.1 to 1 | 0.1 to 1 | 0.1 to 1 | 0.01 to 0.1 | 0.01 to 0.1 | 0.01 to 0.1 | 0.01 to 0.1 | 0.01 to 0.1 | 0.01 to 0.1
